Test results reported in the supplement of paper PMC10307832.

How the values were obtained:
Test in all cases: relative viability (nuclei count vs DMSO), 5 days (fraction); higher = more cells survive
[1] = compound: C1COCCN1C2=CC(=O)C3=C(O2)C(=CC=C3)C4=CC=CC5=C4SC6=CC=CC=C56
In short: (§1)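 Viability was defined as treated-well nuclei divided by vehicle-well nuclei, with the median taken over replicate plates. Cells from lung cancer lines sat overnight at 37 °C in 1536-well plates, received five √10-spaced library-drug doses by pinning on vehicle-anchored plates, and grew 5 days without medium change before one-step fixation, permeabilisation and Hoechst staining, 4× imaging and MetaXpress nuclear counts. Only plates with control CV under 25% and at least one doubling were kept.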

[2] = compound: CCN(CC)CCCCNc1ncc2cc(-c3cc(OC)cc(OC)c3)c(NC(=O)NC(C)(C)C)nc2n1
In short: as §1

PRIMA-1MET = compound: COCC1(CO)C(=O)C2CCN1CC2 [PRIMA-1MET]
In short: as §1

Zibotentan = compound: COc1nc(C)cnc1NS(=O)(=O)c1cccnc1-c1ccc(-c2nnco2)cc1 [Zibotentan]
In short: as §1

[3] = compound: O=c1cc(-c2cccc3c2Sc2ccccc2S3)oc(N2CCOCC2)c1
In short: as §1

Cell Line | relative viability ([1]; 0.01 µM) | relative viability ([1]; 0.03162 µM) | relative viability ([1]; 0.1 µM) | relative viability ([1]; 0.3162 µM) | relative viability ([1]; 1 µM) | relative viability ([2]; 0.01 µM) | relative viability ([2]; 0.03162 µM) | relative viability ([2]; 0.1 µM) | relative viability ([2]; 0.3162 µM) | relative viability ([2]; 1 µM) | relative viability (PRIMA-1MET; 0.2 µM) | relative viability (PRIMA-1MET; 0.6325 µM) | relative viability (PRIMA-1MET; 2 µM) | relative viability (PRIMA-1MET; 6.325 µM) | relative viability (PRIMA-1MET; 20 µM) | relative viability (Zibotentan; 0.08 µM) | relative viability (Zibotentan; 0.253 µM) | relative viability (Zibotentan; 0.8 µM) | relative viability (Zibotentan; 2.53 µM) | relative viability ([3]; 0.08 µM) | relative viability ([3]; 0.253 µM) | relative viability ([3]; 0.8 µM) | relative viability ([3]; 2.53 µM) | relative viability ([3]; 8 µM)
NCI-H838 | 1.04 | 0.966 | 0.98 | 0.99 | 0.893 | 0.99 | 0.971 | 1.01 | 0.97 | 0.643 | 1.05 | 0.946 | 0.841 | 1.08 | 0.659 | 0.962 | 0.87 | 0.987 | 0.998 | 0.979 | 1.09 | 0.862 | 0.947 | 0.887
NCI-H1299 | 1.01 | 0.987 | 1.02 | 0.994 | 1.01 | 1.03 | 1.06 | 1.09 | 1.06 | 1.02 | 1.08 | 1.03 | 1.03 | 1.02 | 0.977 | 1.02 | 1.02 | 0.998 | 1.02 | 1.02 | 1.02 | 1.04 | 1.02 | 1.01
NCI-H1355 | 0.991 | 1.04 | 0.74 | 1.03 | 0.928 | 1.08 | 0.938 | 1.04 | 1.11 | 0.939 | 0.955 | 0.908 | 0.894 | 0.973 | 0.927 | 1 | 0.984 | 0.955 | 1 | 0.955 | 1.13 | 0.837 | 0.904 | 0.953
NCI-H1395 | 0.944 | 0.987 | 0.888 | 1.15 | 0.822 | 0.731 | 0.894 | 0.979 | 0.869 | 0.652 | 0.925 | 0.676 | 0.866 | 0.964 | 0.551 | 1.02 | 0.819 | 0.901 | 1.16 | 0.816 | 0.863 | 1.02 | 0.81 | 1.23
NCI-H1437 | 0.955 | 0.98 | 1.02 | 1.05 | 0.959 | 1.08 | 0.979 | 1.08 | 1.11 | 0.945 | 1.03 | 0.859 | 0.971 | 1 | 0.96 | 1.02 | 0.882 | 0.964 | 0.995 | 1.01 | 1.16 | 1.11 | 0.918 | 1.18
NCI-H1563 | 0.972 | 1.01 | 0.944 | 0.975 | 0.977 | 1.03 | 0.95 | 1.04 | 0.928 | 0.729 | 1.05 | 0.968 | 0.806 | 1.06 | 0.457 | 1.04 | 0.716 | 1 | 1.09 | 0.973 | 0.988 | 0.933 | 0.989 | 0.986
NCI-H1623 | 0.939 | 0.932 | 0.888 | 0.931 | 0.888 | 0.951 | 0.888 | 0.913 | 0.993 | 0.933 | 1.07 | 0.943 | 0.926 | 0.997 | 0.598 | 0.936 | 0.744 | 1.05 | 0.85 | 1.03 | 0.981 | 0.957 | 0.944 | 1.07
NCI-H1648 | 0.861 | 1.03 | 1.14 | 0.932 | 0.959 | 1.02 | 1.16 | 0.927 | 0.656 | 0.544 | 0.852 | 0.715 | 1.07 | 0.722 | 0.75 | 1.04 | 0.786 | 0.84 | 0.932 | 0.742 | 1.16 | 0.792 | 0.591 | 0.921
NCI-H1650 | 0.788 | 0.893 | 0.998 | 0.957 | 0.788 | 0.981 | 0.983 | 1.08 | 0.981 | 0.706 | 1.1 | 0.858 | 0.793 | 0.912 | 0.489 | 0.937 |  | 0.994 | 0.968 | 0.851 | 1.07 | 0.844 | 0.888 | 0.868
NCI-H1651 | 0.983 | 0.976 | 0.975 | 0.998 | 0.944 | 1.04 | 0.988 | 1.05 | 1.06 | 0.979 | 1.08 | 0.901 | 0.907 | 1.04 | 0.946 | 1.03 | 0.912 | 0.937 | 1.03 | 0.974 | 1.13 | 0.983 | 0.941 | 1.07
NCI-H1666 | 0.996 | 0.959 | 1.01 | 1.02 | 0.953 | 0.942 | 0.993 | 1 | 1.17 | 0.973 | 0.993 | 0.868 | 0.962 | 0.938 | 0.942 | 1.02 | 0.879 | 1.03 | 1.06 | 0.94 | 1.09 | 1.02 | 0.911 | 1
NCI-H1703 | 1.19 | 0.926 | 0.964 | 0.958 | 0.861 | 0.832 | 0.854 | 1.19 | 1.04 | 0.723 | 1.19 | 0.852 | 0.815 | 0.797 | 0.0528 | 0.972 | 0.94 | 1.25 | 0.505 | 0.718 | 1.01 | 1.03 | 0.925 | 0.843
NCI-H1734 | 0.977 | 1.01 | 0.883 | 0.997 | 0.964 | 0.949 | 1.1 | 1.09 | 1.03 | 0.85 | 1.03 | 0.75 | 0.734 | 0.945 | 0.0584 | 1.04 | 0.884 | 1.02 | 1 | 0.98 | 1.13 | 1.1 |  | 1.13
NCI-H1755 | 1.03 | 1.01 | 0.986 | 0.994 | 0.985 | 1.04 | 1.05 | 1.08 | 1.1 | 1.01 | 1.04 | 0.928 | 0.85 | 1.07 | 0.999 | 0.972 | 0.987 | 0.926 | 0.977 | 0.96 | 1.03 | 1.05 | 1.06 | 1.05
